Publication PMC6084503, “Pyrrolo[3,2-c]pyridine derivatives with potential inhibitory effect against FMS kinase: in vitro biological studies” (Journal of Enzyme Inhibition and Medicinal Chemistry, 2018)
Like-named read-outs stand apart in the source and are kept apart here.

Legend:
FMS kinase = molecular target: T1, FMS kinase (Homo sapiens, UniProt P07333); assay: Kinase HotSpot cell-free enzyme assay, FMS kinase; format: biochemical
T1 construct: purchased Reaction Biology Corp
Experimental: (§1) Reaction Biology Corp. Kinase HotSpot^SM service [http://www.reactionbiology.com] was utilised for screening of the target compounds as per the protocol reported in the literature.
Compounds 1a–r were tested in a 10-dose testing mode starting with 81 µM, threefold serial dilutions, against FMS kinase in a cell-free enzyme assay. […] This can be due to occupancy of a hydrophobic pocket with that additional benzoyl moiety and/or formation of additional hydrogen bond by the carbonyl oxygen.

[1] = test system: panel of 40 kinases including FMS; assay: Kinase HotSpot 40-kinase panel, summary over the other kinases; format: biochemical; settings: 1 µM; kinases other than FMS, FLT3 (D835Y) and c-MET
Experimental: as §1
Compound 1r was tested against a panel of 40 kinases including FMS. […] Its inhibition percentages against FLT3 (D835Y) and c-MET kinases were 42% and 40%, respectively. So its IC50 values against both of them will be in micromolar scale. […] The inhibition percentages exerted by compound 1r against the other 37 tested kinases were less than 28%.

[2] = test system: DU-145 prostate cancer cell line; assay: NCI antiproliferative screening, 5-dose; format: cell-based; settings: for IC50: concentration producing 50% inhibition, mean of duplicate experiments; for TGI: concentration producing 100% inhibition
Experimental: (§2) Compounds 1r and KIST101029 were tested at the National Cancer Institute (NCI, Bethesda, MD) following their standard protocol [https://dtp.cancer.gov/discovery_development/nci-60/methodology.htm].
(§3) Due to over-expression of FMS kinase in certain types of tumours such as ovarian, prostate, and breast[5–7] cancers, we decided to test the antiproliferative activity of compound 1r against a panel of six ovarian, two prostate, and five breast cancer cell lines. It was also tested against HS 27 fibroblasts in order to investigate the selectivity indexes. The results were compared with those of KIST101029 as a reference standard.

[3] = test system: HS 578T breast cancer cell line; assay: NCI antiproliferative screening, 5-dose; format: cell-based; settings: for IC50: concentration producing 50% inhibition, mean of duplicate experiments; for TGI: concentration producing 100% inhibition
Experimental: as §2, §3

[4] = test system: IGROV1 ovarian cancer cell line; assay: NCI antiproliferative screening, 5-dose; format: cell-based; settings: for IC50: mean of duplicate experiments; for TGI: concentration producing 100% inhibition
Experimental: as §2, §3

[5] = test system: MCF7 breast cancer cell line; assay: NCI antiproliferative screening, 5-dose; format: cell-based; settings: for IC50: concentration producing 50% inhibition, mean of duplicate experiments; for TGI: concentration producing 100% inhibition
Experimental: as §2, §3

[6] = test system: MDA-MB-231/ATCC breast cancer cell line; assay: NCI antiproliferative screening, 5-dose; format: cell-based; settings: for IC50: concentration producing 50% inhibition, mean of duplicate experiments; for TGI: concentration producing 100% inhibition
Experimental: as §2, §3

[7] = test system: MDA-MB-468 breast cancer cell line; assay: NCI antiproliferative screening, 5-dose; format: cell-based; settings: for IC50: concentration producing 50% inhibition, mean of duplicate experiments; for TGI: concentration producing 100% inhibition
Experimental: as §2, §3

[8] = test system: NCI/ADR-RES ovarian cancer cell line; assay: NCI antiproliferative screening, 5-dose; format: cell-based; settings: for IC50: concentration producing 50% inhibition, mean of duplicate experiments; for TGI: concentration producing 100% inhibition
Experimental: as §2, §3

[9] = test system: OVCAR-3 ovarian cancer cell line; assay: NCI antiproliferative screening, 5-dose; format: cell-based; settings: for IC50: concentration producing 50% inhibition, mean of duplicate experiments; for TGI: concentration producing 100% inhibition
Experimental: as §2, §3

[10] = test system: OVCAR-4 ovarian cancer cell line; assay: NCI antiproliferative screening, 5-dose; format: cell-based; settings: for IC50: concentration producing 50% inhibition, mean of duplicate experiments; for TGI: concentration producing 100% inhibition
Experimental: as §2, §3

[11] = test system: OVCAR-5 ovarian cancer cell line; assay: NCI antiproliferative screening, 5-dose; format: cell-based; settings: for IC50: concentration producing 50% inhibition, mean of duplicate experiments; for TGI: concentration producing 100% inhibition
Experimental: as §2, §3

[12] = test system: OVCAR-8 ovarian cancer cell line; assay: NCI antiproliferative screening, 5-dose; format: cell-based; settings: for IC50: concentration producing 50% inhibition, mean of duplicate experiments; for TGI: concentration producing 100% inhibition
Experimental: as §2, §3

[13] = test system: PC-3 prostate cancer cell line; assay: NCI antiproliferative screening, 5-dose; format: cell-based; settings: for IC50: concentration producing 50% inhibition, mean of duplicate experiments; for TGI: concentration producing 100% inhibition
Experimental: as §2, §3

[14] = test system: T-47D breast cancer cell line; assay: NCI antiproliferative screening, 5-dose; format: cell-based; settings: for IC50: concentration producing 50% inhibition, mean of duplicate experiments; for TGI: concentration producing 100% inhibition
Experimental: as §2, §3

HS 27 fibroblasts = assay: Antiproliferative screening against HS 27 fibroblasts; format: cell-based; settings: HS-27 Fibroblasts (normal cells), concentration producing 50% inhibition
Experimental: It was conducted following the previously reported protocol.
as §3

[15] = test system: panel of six ovarian, two prostate, and five breast cancer cell lines; assay: NCI antiproliferative screening, whole panel; format: cell-based; settings: read-out: IC50 values, range over the cancer cell line panel
Experimental: as §2, §3

[16] = test system: bone marrow-derived macrophages (BMDM); assay: BMDM assay, CSF-1-induced BMDM growth (Alamar Blue); format: cell-based, C57BL6 murine; settings: 5 days, triplicate assay, mean ± SEM, 10-dose from 1 µM, read-out: IC50 against bone marrow-derived macrophages (BMDM)
Experimental: The macrophages were isolated from C57BL6 murine bone marrow using Miltenyi Biotec MACS beads (CD11b). The macrophages (30,000 cells/well) were cultured in RPMI 1640 medium containing 10% foetal bovine serum, 2-mercaptoethanol ([…]), and the test compound for 1 h at 37 °C in the presence of 5% CO2. CSF-1 (20 ng/mL) was then added and the system was incubated for 5 days. Each compound was tested in a 10-dose testing mode, threefold serial dilution starting with 1 µM concentration. The inhibitory effects of the tested compounds against CSF-1-induced BMDM growth were determined using Alamar Blue^TM (Serotec).
FMS over-expression contributes to inflammatory disorders as explained in the Introduction section. So compounds 1r and KIST101029 were tested for their ability to inhibit CSF-1-induced BMDM growth. […] So, the compound 1r can be a promising candidate for future development of anti-arthritic drugs.
Each compound was tested in a 10-dose testing mode, threefold serial dilution starting with 1 µM concentration.

T1 sequence (P07333 20-972): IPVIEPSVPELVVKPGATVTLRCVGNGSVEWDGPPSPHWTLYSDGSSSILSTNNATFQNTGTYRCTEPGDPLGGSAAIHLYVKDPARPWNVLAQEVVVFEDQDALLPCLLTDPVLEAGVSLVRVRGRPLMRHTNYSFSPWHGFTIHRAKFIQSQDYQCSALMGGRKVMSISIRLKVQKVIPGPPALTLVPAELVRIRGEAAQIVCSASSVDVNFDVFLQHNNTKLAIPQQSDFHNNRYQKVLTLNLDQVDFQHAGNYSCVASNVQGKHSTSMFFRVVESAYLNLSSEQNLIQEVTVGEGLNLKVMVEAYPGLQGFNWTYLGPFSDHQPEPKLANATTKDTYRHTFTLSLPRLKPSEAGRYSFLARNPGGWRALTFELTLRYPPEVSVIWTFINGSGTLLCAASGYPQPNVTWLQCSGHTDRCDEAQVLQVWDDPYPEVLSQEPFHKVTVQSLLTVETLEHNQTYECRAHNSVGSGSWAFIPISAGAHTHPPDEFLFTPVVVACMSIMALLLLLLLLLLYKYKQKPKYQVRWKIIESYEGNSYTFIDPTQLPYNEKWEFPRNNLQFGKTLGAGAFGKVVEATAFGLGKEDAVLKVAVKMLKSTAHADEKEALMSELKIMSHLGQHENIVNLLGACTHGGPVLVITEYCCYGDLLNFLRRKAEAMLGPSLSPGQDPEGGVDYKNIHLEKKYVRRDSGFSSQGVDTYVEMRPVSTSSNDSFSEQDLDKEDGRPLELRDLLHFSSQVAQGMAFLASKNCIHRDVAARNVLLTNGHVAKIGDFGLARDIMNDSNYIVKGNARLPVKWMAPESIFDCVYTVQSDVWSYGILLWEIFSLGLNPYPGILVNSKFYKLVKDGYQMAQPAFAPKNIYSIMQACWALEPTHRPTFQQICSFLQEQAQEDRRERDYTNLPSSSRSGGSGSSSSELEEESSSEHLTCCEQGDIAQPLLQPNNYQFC

In the case of `Nc1nccc2c1ccn2-c1cccc(NC(=O)c2ccc(N3CCOCC3)c(C(F)(F)F)c2)c1` [Compound 1r], the IC50 (FMS kinase; 10-dose duplicate assay, mean ± SEM, starting with 81 µM, threefold serial dilution, read-out: IC50 against FMS kinase) is reported as 30 ± 20 nM, the “Potency against FMS kinase relative to KIST101029” value (FMS kinase; ratio of IC50 values, more potent than lead compound KIST101029) is reported as 3.2 times and the “Inhibition percentages against the other 37 tested kinases” value [1] is reported as “less than 28%”. It also gave an IC50 [2] of 1300 nM, a TGI [2] of 4670 nM and an IC50 [3] of 340 nM. It also gave a TGI [3] of 2430 nM, an IC50 ([4]; concentration producing 50% inhibition) of 700 nM and a TGI [4] of 43300 nM. It also gave an IC50 [5] of 150 nM, a TGI [5] of 6860 nM and an IC50 [6] of 840 nM. The TGI [6] was 2320 nM, the IC50 [7] was 300 nM and the TGI [7] was 3140 nM. The IC50 [8] was 340 nM, the TGI [8] was >50000 nM and the IC50 [9] was 240 nM. For the same compound, the TGI [9] was 1470 nM, the IC50 [10] was 1080 nM and the TGI [10] was 26000 nM. For the same compound, the IC50 [11] was 1380 nM, the TGI [11] was >50000 nM and the IC50 [12] was 1260 nM. The TGI [12] was 9960 nM, the IC50 [13] was 380 nM and the TGI [13] was 10400 nM. It also gave an IC50 [14] of 1780 nM, a TGI [14] of 27500 nM and an IC50 (HS 27 fibroblasts) of 5720 nM. It also gave an IC50 [15] of 150 to 1780 nM and an IC50 [16] of 84 ± 3 nM.
In the case of `O=C(Nc1cccc(-n2ccc3c(NC(=O)c4ccccc4)nccc32)c1)c1ccc(N2CCOCC2)c(C(F)(F)F)c1` [KIST101029, reference compound], the IC50 ([2]; Homo sapiens) is reported as 40 nM, the TGI [2] is reported as 100 nM and the IC50 ([3]; Homo sapiens) is reported as 990 nM. For the same compound, the TGI [3] was 97200 nM, the IC50 ([4]; Homo sapiens, IGROV-1, concentration producing 50% inhibition) was 60 nM and the TGI [4] was 56900 nM. For the same compound, the IC50 ([5]; Homo sapiens) was 40 nM, the TGI [5] was 54000 nM and the IC50 ([6]; Homo sapiens) was 160 nM. For the same compound, the TGI [6] was 3420 nM, the IC50 ([7]; Homo sapiens) was 30 nM and the TGI [7] was 100 nM. It also gave an IC50 ([8]; Homo sapiens) of 40 nM, a TGI [8] of 26400 nM and an IC50 ([9]; Homo sapiens) of 20 nM. For the same compound, the TGI [9] was 50 nM, the IC50 ([10]; Homo sapiens) was 240 nM and the TGI [10] was 50000 nM. The IC50 ([11]; Homo sapiens) was 200 nM, the TGI [11] was >100000 nM and the IC50 ([12]; Homo sapiens) was 60 nM. The TGI [12] was >100000 nM, the IC50 [13] was 60 nM and the TGI [13] was >100000 nM. For the same compound, the IC50 ([14]; Homo sapiens, T47D) was 80 nM, the TGI [14] was 7460 nM and the IC50 (HS 27 fibroblasts; Homo sapiens, HS27) was 300 nM. For the same compound, the IC50 ([16]; Mus musculus, 120 h) was 195 ± 6 nM.
